Where “and” joins values, the source holds several entries; their conditions need not be identical. Identical values can stand only once. Like-named read-outs stand apart in the source and are kept apart here. Where a SMILES comes first, the peptide text is derived from it. Bridges are numbered along the chain shown (N, C = ends). [ ]: non-standard residue; d: D form. The star is where a group is joined. Ileψ(thiazoline)Cys = CC[C@H](C)[C@H](N)C1=N[C@H](C(=O)*)CS1; dOrn = NCCC[C@@H](N)C(=O)O
Key:
[1] = tested on: transgenic plant cell cultures; test: Effect of stabilizing agents and protease inhibitors on rAAT production in transgenic plant cell cultures; assay type: cell-based, Nicotiana benthamiana; conditions: transgenic plant cell cultures; data not shown
Protocol: The effect of stabilizing agents (bacitracin, PVP, BSA, Pluronic F-68, and mannitol) and protease inhibitors (2-mercaptoethylamine-HCl, AEBSF, benzamidine-HCl and EDTA) on the rAAT production in transgenic plant cell cultures was also evaluated.

[2] = tested on: proteases in the cell cultured medium; test: Effect of protease inhibitors and additives on human AAT degradation in cell-free CMViva conditioned medium; assay type: biochemical, Nicotiana benthamiana; conditions: cell-free conditioned medium; data not shown
Protocol: (§1) For the investigation of human AAT stability in plant cell cultures, human AAT was added to the cell-free conditioned medium to a final concentration of 2 mg/L and distributed into 6-well-plates. The cell-free conditioned medium was prepared by centrifuging and filtering (through a 0.22 μm filter) the plant cells from 7 day old CMViva cell cultures (pH 5.1). Various protease inhibitors including 2-mercaptoethylamine-HCl (aminopeptidase inhibitor), AEBSF (serine and cysteine proteases inhibitor), benzamidine-HCl (serine protease inhibitor), and EDTA (a metal ion chelator and metalloproteinase inhibitor) were added to the conditioned medium to a final concentration of 10 mM to assess their ability to retard the degradation of human AAT. In another treatment, the conditioned medium was also heated (in boiling water for 30 minutes) or the medium pH was adjusted (from original pH 5.1 to 6.4˜6.6) prior to the addition of human AAT to investigate the human AAT stability. The 6-well-plates containing human AAT in various conditioned medium (4 mL/well) were incubated on an orbital shaker at 140 rpm and 25[…] under ambient light. Samples were taken daily and stored at −80° for further ELISA, western blotting and band shift analysis.

N. benthamiana cultures = test: Effects of estradiol on N. benthamiana cultures (toxicity, growth); assay type: cell-based, Nicotiana benthamiana; conditions: at up to 100 μM
Protocol: (§2) For inducible systems, the correct inducer concentration and timing of application are critical to maximize recombinant protein expression. Two inducible expression systems were evaluated for rAAT protein production. The concentration of inducer (COI) required for inducing maximum rAAT production and the close-response of inducible plant cell cultures were determined. Inducer was added to the XVE and CMViva cell suspensions 10 days after inoculation (100 mL cell culture in a 250 mL Erlenmeyer flask, 140 rpm and 25° C. under ambient light) to a final concentration of 0, 0.1, 0.5, 1, 2.5, 5, 10, 25, 50 or 100 μM. Samples were harvested 8 days after induction and total and functional extracellular rAAT were determined by ELISA (FIG. 8). In the absence of inducer, rAAT was not detected in XVE or CMViva cultures. There was a dose-dependent response in rAAT expression in XVE and CMViva cell cultures with added inducer, and both inducible systems allowed regulation of rAAT expression at inducer concentrations between 0.1 and 10 μM. Above approximately 10 μM estradiol, rAAT production leveled off in both XVE and CMViva systems. The CMViva system first responded at 0.1 μM while XVE required 2.5 μM. […]

XVE system = conditions: cited from earlier work
[3] = tested on: viral amplicon plant cell cultures; conditions: cited from earlier work
[4] = tested on: CMViva inducible cell cultures; test: Effect of inducer concentration on rAAT production, CMViva inducible cell cultures; assay type: cell-based, Nicotiana benthamiana
Protocol: (§3) The inducer, 17-beta-estradiol, dissolved in DMSO, was added to cultures of XVE and CMViva transgenic cell lines at a specific time after inoculation to start induction. The final concentration of DMSO was not higher than 0.3%.
For inducible systems, the correct inducer concentration and timing of application are critical to maximize recombinant protein expression. Two inducible expression systems were evaluated for rAAT protein production. The concentration of inducer (COI) required for inducing maximum rAAT production and the close-response of inducible plant cell cultures were determined. Inducer was added to the XVE and CMViva cell suspensions 10 days after inoculation (100 mL cell culture in a 250 mL Erlenmeyer flask, 140 rpm and 25° C. under ambient light) to a final concentration of 0, 0.1, 0.5, 1, 2.5, 5, 10, 25, 50 or 100 μM. Samples were harvested 8 days after induction and total and functional extracellular rAAT were determined by ELISA (FIG. 8). In the absence of inducer, rAAT was not detected in XVE or CMViva cultures. There was a dose-dependent response in rAAT expression in XVE and CMViva cell cultures with added inducer, and both inducible systems allowed regulation of rAAT expression at inducer concentrations between 0.1 and 10 μM. Above approximately 10 μM estradiol, rAAT production leveled off in both XVE and CMViva systems. The CMViva system first responded at 0.1 μM while XVE required 2.5 μM. Higher extracellular rAAT productivity was produced in CMViva at a relatively low inducer concentration (0.5 μM) compared with that in XVE system (5 μM) and CMViva produced more functional rAAT at all inducer concentrations.

[5] = tested on: XVE inducible cell cultures; test: Effect of inducer concentration on rAAT production, XVE inducible cell cultures; assay type: cell-based, Nicotiana benthamiana
Protocol: as §3
as §2, with “systems.” for “systems. The CMViva system first responded at 0.1 μM while XVE required 2.5 μM.”

[6] = Protocol: as §1
N. benthamiana leaves = test: Induction method study, total rAAT ELISA in intact or detached N. benthamiana leaves (CMViva + p19); assay type: in vivo, Nicotiana benthamiana
Protocol: (§4) Non-transgenic/wildtype N. benthamiana seedlings were grown from seed in soil-filled 10-cm pots. Seedlings were transplanted to individual 10-cm pots until plants were 10 to 15 cm in height, at which time plants were ready for infiltration. All plants were grown in a greenhouse with a 16-hour photoperiod and a temperature range of 18° C. (nighttime low) to 30° C. (daytime high). To prepare for evaluation of protein expression in detached leaves, plant leaves were cut at the petiole and stored dry in unsealed plastic bags for one hour before infiltration to simulate a situation where plants would be harvested from a field and transported to a facility for infiltration.
(§5) A. tumefaciens cells containing the appropriate plasmids were grown for 24 hours in 2 mL of Luria-Bertani (LB) broth containing appropriate selection antibiotics. Approximately 0.5 mL was then transferred to 25 mL of LB broth supplemented with 10 μL of 100 mM acetosyringone (3′, 5′-dimethoxy-4′-hydroxyacetophenone) (Aldrich Chemicals, Milwaukee, Wis.) and 0.5 ml of 1 M 2-(4-morpholino) ethanesulfonic acid (MES) buffer (pH 5.6), and grown overnight at 28° C. with shaking until the cell density (optical density, OD600) reached 1.0 absorbance units. Cells were harvested by centrifugation at 2600 g, resuspended in 10 mL of sterile de-ionized water, and the cell density was adjusted to 1.0 absorbance units. Five milliliters of the A. tumefaciens cell suspension for CMViva was mixed with 5 mL of A. tumefaciens cells containing the p35S:p19 plasmid, and then supplemented with magnesium chloride to reach a final concentration of 10 mM and acetosyringone to 150 µM, and incubated at room temperature for five hours. Bacterial suspensions were then pressure infiltrated onto the abaxial side of either intact or detached N. benthamiana leaves using a 3-mL sterile syringe without a needle at three to four points to sufficiently cover the entire leaf (approximately 1 mL of bacterial suspension per 0.5 g fresh weight of tissue). No A. tumefaciens solution was applied to plants selected as healthy control plants.
(§6) Intact plants that had been infiltrated were grown in the greenhouse for the duration of the experiment. Leaves that had been detached were stored in a humidity chamber following infiltration to maintain the health of the plant material. The humidity chamber was prepared by soaking 400 g of Perlite soil additive (E.B. Stone) in 1.5 L of de-ionized water. Excess water was decanted and the saturated Perlite was packed to form a 3-cm thick bed on the bottom of an 11.4 L rectangular Tupperware container. Plant leaves were then placed 7 cm above the Perlite bed on top of racks, and the chamber was then sealed and placed in the dark at 21° C. The humidity chamber was prepared five hours before infiltration to ensure a humid environment upon introduction of the plant leaves.
(§7) Twelve hours after infiltration, an induction solution composed of 50 μM 17-β-estradiol (Sigma Inc., St. Louis, Mo.) in 0.05% Tween 20 was applied to all infiltrated N. benthamiana leaves using either cotton tipped applicators to both sides of the leaves or a 3-mL sterile syringe without a needle pressure injected onto the abaxial side of the leaves. To evaluate the effect of multiple inducer applications, the induction solution was applied to half of the total number of infiltrated leaves in the same manner (directly after sampling) at 2-day (48±1 h) increments after the initial induction. No inducer solution was applied at any time to the healthy control plants.
(§8) Plant leaves were sampled on the infiltrated/induced areas 2 days (48±1 h) post-induction (60±1 h post-infiltration) by collecting two 7-mm diameter discs at various locations on each leaf and combining the discs to approximate an average leaf sample. Three leaves from different plants were sampled for analysis of intact plant leaves and four leaves were used for analysis of detached plant leaves. […]

[7] = tested on: porcine pancreatic elastase (PPE); test: Induction method study, functional rAAT ELISA in intact or detached N. benthamiana leaves (CMViva + p19); assay type: biochemical
Protocol: as §4, §5, §6, §7, §8

[8] = inducer added 10 days after inoculation, sampled 8 days after induction
[9] = 5 day incubation, fresh sterile KCMS medium, pH 5.8
[10] = detached leaves, single pressure injection
[11] = intact leaves, single pressure injection
[12] = intact leaves, single topical application, four days after induction

## CC[C@H](C)[C@H](N)C1=N[C@H](C(=O)N[C@@H](CC(C)C)C(=O)N[C@H](CCC(=O)O)C(=O)N[C@H](C(=O)N[C@H]2CCCCNC(=O)[C@H](CC(N)=O)NC(=O)[C@@H](CC(=O)O)NC(=O)[C@H](Cc3cnc[nH]3)NC(=O)[C@@H](Cc3ccccc3)NC(=O)[C@H]([C@@H](C)CC)NC(=O)[C@@H](CCCN)NC2=O)[C@@H](C)CC)CS1 [bacitracin] ({Ileψ(thiazoline)Cys}-L[dE]IK[dOrn]I[dF]H[dD]N; lactam 4-C)
[1]
  effect on total and functional rAAT production: no significant improvement
[2]
  effect of medium additive on stabilizing functional human AAT: did not show significant effect

## C[C@]12CC[C@@H]3c4ccc(O)cc4CC[C@H]3[C@@H]1CC[C@@H]2O [estradiol, 17-β-estradiol]
N. benthamiana cultures
  detrimental, toxic or growth-inhibiting effects on cultures: no obvious detrimental, toxic, or growth-inhibiting effects
XVE system; plants, XVE system
  estradiol concentration giving detectable GFP transcripts: 8 nM
XVE system; whole plants
  estradiol concentration at saturation of GFP transcripts: around 5 μM
[3]; viral amplicon plant cell cultures
  estradiol concentration giving GFP fluorescence: 10 nM
[3]; viral amplicon system in plant cell culture
  estradiol concentration at saturation of GFP fluorescence: 0.1 to 1 µM
[4]; flask cultures
  inducer concentration giving higher extracellular rAAT productivity: 0.5 µM
[4]; [8]
  estradiol concentration at which the system first responded (detectable rAAT): 0.1 µM
[4]; lowest concentration tested
  lowest estradiol concentration with detectable rAAT expression: 100 nM
[5]; flask cultures
  inducer concentration giving higher extracellular rAAT productivity: 5 µM
[5]; [8]
  estradiol concentration at which the system first responded (detectable rAAT): 2.5 µM

## Cl.N=C(N)c1ccccc1 [benzamidine-HCl]
[1]
  effect on total and functional rAAT production: no significant improvement

## human AAT: commercially available human AAT (Calbiochem) used as standard and spiked into media
[6]; 5 day incubation, 7 day old cell-free CMViva culture medium, pH about 5.0
  decline of total human AAT: 60%
[6]; [9]
  decline of functional human AAT: ~50%
  decline of total human AAT: about 25%
[6]; 5 day period, CMViva culture medium adjusted to pH 6.4
  decline of total human AAT: about 25%
[6]; 11 day-old cell-free CMViva medium adjusted to pH 4-5
  functionality of human AAT: accelerates the loss of functionality
[6]; 11 day-old cell-free CMViva medium adjusted to pH 7-8
  functionality of human AAT: maintains the functionality
[6]; after 5 days, heated CMViva culture medium
  functional human AAT as % of the initial concentration: 70%
[6]; within 2 days, 7 day old cell-free CMViva culture medium, pH about 5.0
  functional human AAT level: negligible

## rAAT: recombinant α1-antitrypsin, a human blood protein, produced in N. benthamiana
N. benthamiana leaves; detached leaves, multiple topical applications
  maximum total rAAT: 3.5±0.15 % of TSP
N. benthamiana leaves; [10]
  total rAAT: 2.4±0.18 % of TSP
N. benthamiana leaves; detached leaves, single topical application
  maximum total rAAT: 2.5±0.08 % of TSP
N. benthamiana leaves; intact leaves, multiple pressure injections, 6 days after induction
  maximum total rAAT: 5.8±0.46 % of TSP
N. benthamiana leaves; intact leaves, pressure injection
  increase of total rAAT, multiple compared to single treatment: 57%
N. benthamiana leaves; [11]
  total rAAT: 3.7±0.31 % of TSP
N. benthamiana leaves; [12]
  total rAAT: 1.4±0.17 % of TSP
N. benthamiana leaves; intact leaves, single topical application, six days after induction
  maximum total rAAT: 1.9±0.15 % of TSP
N. benthamiana leaves; intact leaves, topical application
  increase of total rAAT, multiple compared to single treatment: 120%
N. benthamiana leaves; intact plants
  more total rAAT, single pressure injection compared to single topical application: 95%
N. benthamiana leaves; single topical application
  maximum total rAAT in detached leaves above that in intact leaves: 0.6 % of TSP
[7]; detached leaves
  functional rAAT higher with single pressure injection than single topical application: 80%
  increase of maximum functional rAAT, inducer applied topically every two days: 1.8 fold
[7]; detached leaves, injection method, two days after induction
  maximum percentage of functional rAAT to total rAAT: 85-87%
[7]; detached leaves, multiple topical applications, four days post induction
  functional rAAT: 1.3±0.05 % of TSP
[7]; [10]
  functional rAAT: 1.3±0.06 % of TSP
[7]; detached leaves, single topical application, four days post induction
  functional rAAT: 0.71±0.04 % of TSP
[7]; detached leaves, topical application, two days after induction
  maximum percentage of functional rAAT to total rAAT: 55-65%
[7]; intact leaves
  increase of maximum functional rAAT, multiple pressure injections compared to single topical application: up to 3 fold
[7]; intact leaves, eighth day after induction, any of the treatments
  percentage of total rAAT that is functional: less than 15%
[7]; intact leaves, multiple pressure injections
  maximum functional rAAT: 2.4±0.09 % of TSP
[7]; intact leaves, multiple topical applications
  maximum functional rAAT: 1.6±0.08 % of TSP
[7]; intact leaves, pressure injection, two days after induction
  percentage of total rAAT that is functional: 83-90% and > 85%
[7]; [11]
  maximum functional rAAT: 1.8±0.09 % of TSP
[7]; [12]
  maximum functional rAAT: 0.80±0.04 % of TSP
[7]; intact leaves, six days after induction, single induction treatment
  functional rAAT still present as % of the maximum level: less than 40%
[7]; intact plants
  more functional rAAT, single pressure injection compared to single topical application: 125%
[7]; multiple topical applications, four days post induction
  functional rAAT in detached leaves less than in intact leaves: 0.3 % of TSP
[7]; single topical application, four days post induction
  functional rAAT in detached leaves less than in intact leaves: 0.09 % of TSP
